Laboratory results reported in article PMC2978906 (Cancer prevention research (Philadelphia, Pa.), 2010).

Target: T1, estrogen receptor α (ER-α) (Homo sapiens, UniProt P03372)
T1 sequence (P03372 311-547 limits assumed): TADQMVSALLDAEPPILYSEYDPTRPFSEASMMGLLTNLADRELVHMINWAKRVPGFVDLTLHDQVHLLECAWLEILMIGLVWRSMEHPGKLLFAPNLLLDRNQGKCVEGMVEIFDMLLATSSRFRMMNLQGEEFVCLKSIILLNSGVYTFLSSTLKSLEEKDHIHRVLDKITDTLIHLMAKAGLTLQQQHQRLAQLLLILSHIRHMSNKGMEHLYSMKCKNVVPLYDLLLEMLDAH
Assay: LanthaScreen TR-FRET competitive binding assay

IC50: 51 µM
SMILES: CC(C)c1cc2c(c(O)c1O)[C@@]13CCCC(C)(C)[C@@H]1C[C@@H]2OC3=O [carnosol]
